Source: patent US20230117470A1, “SUBSTITUTED PYRAZOLE COMPOUNDS AS TOLL RECEPTOR INHIBITORS” (BRISTOL-MYERS SQUIBB COMPANY, priority 2019, published 2023)

Key:
Type in all cases: cell-based
[1] = biological target: T1, human TLR9 (Homo sapiens, UniProt Q9NR96); experiment: TLR9 inhibition reporter assay (HEK-Blue cells, SEAP reporter, ODN2006 stimulation); conditions: HEK-Blue cells overexpressing human TLR9, SEAP reporter, ODN2006 5 nM
T1 construct: host or cells: HEK-Blue cells
T1 sequence (Q9NR96 26-1032): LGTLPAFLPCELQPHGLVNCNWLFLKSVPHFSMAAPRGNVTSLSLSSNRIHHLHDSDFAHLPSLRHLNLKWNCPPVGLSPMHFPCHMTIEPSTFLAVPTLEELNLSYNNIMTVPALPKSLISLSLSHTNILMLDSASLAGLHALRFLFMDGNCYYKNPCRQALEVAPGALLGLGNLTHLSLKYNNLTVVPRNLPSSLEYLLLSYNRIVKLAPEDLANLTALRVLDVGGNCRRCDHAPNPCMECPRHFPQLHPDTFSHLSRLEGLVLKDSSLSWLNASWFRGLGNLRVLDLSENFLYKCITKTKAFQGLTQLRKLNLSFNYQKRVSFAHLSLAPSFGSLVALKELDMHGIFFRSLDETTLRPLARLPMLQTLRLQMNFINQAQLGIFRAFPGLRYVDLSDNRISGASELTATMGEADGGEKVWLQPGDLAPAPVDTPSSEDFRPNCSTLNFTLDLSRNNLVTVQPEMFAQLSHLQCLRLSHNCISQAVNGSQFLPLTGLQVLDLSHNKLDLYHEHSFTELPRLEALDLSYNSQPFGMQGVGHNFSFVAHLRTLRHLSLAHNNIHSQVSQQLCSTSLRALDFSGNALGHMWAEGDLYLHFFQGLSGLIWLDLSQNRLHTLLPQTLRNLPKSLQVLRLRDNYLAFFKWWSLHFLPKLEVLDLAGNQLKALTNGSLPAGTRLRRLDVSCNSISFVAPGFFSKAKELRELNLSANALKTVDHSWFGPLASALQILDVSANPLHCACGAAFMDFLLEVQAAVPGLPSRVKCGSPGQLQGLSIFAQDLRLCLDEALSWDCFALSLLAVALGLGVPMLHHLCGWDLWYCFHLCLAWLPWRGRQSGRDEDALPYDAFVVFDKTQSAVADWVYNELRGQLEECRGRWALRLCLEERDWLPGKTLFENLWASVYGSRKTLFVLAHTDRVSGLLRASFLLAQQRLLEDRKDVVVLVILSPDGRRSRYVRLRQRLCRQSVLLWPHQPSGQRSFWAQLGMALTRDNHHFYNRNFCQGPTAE
Method in brief: (§1)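 Cells were pre-treated 30 min at room temperature with compound (final 0.05 nM–50 μM), then stimulated with gardiquimod 7.5 μM (TLR7), R848 15.9 μM (TLR8) or ODN2006 5 nM (TLR9). SEAP was read after 22 h at 37° C; percent inhibition scaled between agonist+DMSO and known-inhibitor wells.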

[2] = biological target: T2, human TLR8 (Homo sapiens, UniProt Q9NR97); experiment: TLR8 inhibition reporter assay (HEK-Blue cells, SEAP reporter, R848 stimulation); conditions: HEK-Blue cells overexpressing human TLR8, SEAP reporter, R848 15.9 μM
T2 construct: host or cells: HEK-Blue cells
T2 sequence (Q9NR97 27-1041): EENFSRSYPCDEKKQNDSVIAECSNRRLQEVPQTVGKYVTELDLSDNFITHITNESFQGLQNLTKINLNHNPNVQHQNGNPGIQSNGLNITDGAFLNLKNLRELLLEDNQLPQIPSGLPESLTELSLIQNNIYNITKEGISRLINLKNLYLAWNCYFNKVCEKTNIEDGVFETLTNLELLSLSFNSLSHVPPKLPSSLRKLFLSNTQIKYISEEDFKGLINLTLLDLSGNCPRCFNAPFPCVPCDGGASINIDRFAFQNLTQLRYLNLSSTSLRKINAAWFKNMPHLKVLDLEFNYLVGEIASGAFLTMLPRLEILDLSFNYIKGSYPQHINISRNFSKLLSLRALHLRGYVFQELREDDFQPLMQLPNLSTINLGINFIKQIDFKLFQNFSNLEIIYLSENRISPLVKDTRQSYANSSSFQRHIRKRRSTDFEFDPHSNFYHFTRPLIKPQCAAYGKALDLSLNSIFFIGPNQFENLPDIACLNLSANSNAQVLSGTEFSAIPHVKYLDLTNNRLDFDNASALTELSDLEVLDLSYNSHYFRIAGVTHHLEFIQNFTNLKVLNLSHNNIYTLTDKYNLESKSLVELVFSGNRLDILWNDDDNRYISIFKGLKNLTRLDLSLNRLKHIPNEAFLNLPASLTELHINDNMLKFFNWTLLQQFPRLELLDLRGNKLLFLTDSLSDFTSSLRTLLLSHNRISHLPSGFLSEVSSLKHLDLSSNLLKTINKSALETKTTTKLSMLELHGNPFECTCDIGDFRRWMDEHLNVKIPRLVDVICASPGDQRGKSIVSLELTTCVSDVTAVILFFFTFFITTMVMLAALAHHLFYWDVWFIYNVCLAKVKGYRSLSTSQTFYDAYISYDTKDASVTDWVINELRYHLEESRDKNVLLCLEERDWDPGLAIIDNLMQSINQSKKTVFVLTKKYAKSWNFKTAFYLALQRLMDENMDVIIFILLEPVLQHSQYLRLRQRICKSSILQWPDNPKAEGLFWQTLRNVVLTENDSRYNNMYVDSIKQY
Method in brief: as §1

[3] = biological target: T3, human TLR7 (Homo sapiens, UniProt Q9NYK1); experiment: TLR7 inhibition reporter assay (HEK-Blue cells, SEAP reporter, gardiquimod stimulation); conditions: HEK-Blue cells overexpressing human TLR7, SEAP reporter, gardiquimod 7.5 μM
T3 construct: host or cells: HEK-Blue cells
T3 sequence (Q9NYK1 27-1049): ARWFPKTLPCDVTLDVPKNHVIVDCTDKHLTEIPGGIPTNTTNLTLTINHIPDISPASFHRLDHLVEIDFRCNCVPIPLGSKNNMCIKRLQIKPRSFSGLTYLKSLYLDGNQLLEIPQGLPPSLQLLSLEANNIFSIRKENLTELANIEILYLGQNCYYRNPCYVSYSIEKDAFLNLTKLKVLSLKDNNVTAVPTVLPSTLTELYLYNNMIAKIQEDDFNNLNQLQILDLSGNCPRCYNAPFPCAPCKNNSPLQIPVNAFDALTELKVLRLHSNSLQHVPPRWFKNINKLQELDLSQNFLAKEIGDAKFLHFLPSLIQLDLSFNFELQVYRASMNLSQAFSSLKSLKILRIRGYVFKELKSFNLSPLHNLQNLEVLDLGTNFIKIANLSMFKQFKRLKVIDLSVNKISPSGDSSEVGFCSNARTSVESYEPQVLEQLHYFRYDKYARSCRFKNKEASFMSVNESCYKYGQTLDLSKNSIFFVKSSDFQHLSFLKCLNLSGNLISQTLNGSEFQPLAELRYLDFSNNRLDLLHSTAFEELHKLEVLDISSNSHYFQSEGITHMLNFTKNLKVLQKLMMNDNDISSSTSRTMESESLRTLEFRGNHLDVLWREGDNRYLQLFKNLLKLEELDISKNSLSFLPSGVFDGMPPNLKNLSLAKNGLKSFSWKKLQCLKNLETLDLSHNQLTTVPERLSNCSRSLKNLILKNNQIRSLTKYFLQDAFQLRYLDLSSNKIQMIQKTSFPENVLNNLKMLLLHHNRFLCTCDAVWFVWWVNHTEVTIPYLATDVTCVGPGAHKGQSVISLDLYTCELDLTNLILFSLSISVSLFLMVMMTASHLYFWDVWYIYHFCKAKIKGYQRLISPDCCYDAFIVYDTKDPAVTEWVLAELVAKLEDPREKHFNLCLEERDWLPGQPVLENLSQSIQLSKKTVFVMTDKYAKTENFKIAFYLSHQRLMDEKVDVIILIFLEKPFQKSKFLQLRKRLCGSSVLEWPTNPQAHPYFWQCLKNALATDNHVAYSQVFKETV
Method in brief: as §1

Structure (SMILES)	IC50 [1] [nM]	IC50 [2] [nM]	IC50 [3] [nM]
COc1cc(-c2[nH]nc(-c3cnc(C4CCN(C(=O)CN(C)C)CC4)cn3)c2C(C)C)cn2ncnc12 [Example 403]	> 50000	156	26.9
COc1cc(-c2[nH]nc(-c3ccc(C4CCN(CC5CC5)CC4)cn3)c2C(C)C)cn2ncnc12 [Example 374]	41500	9.33	11.7
Cc1cc(-c2[nH]nc(C(=O)NC3CCC(O)CC3)c2C(C)C)cn2ncnc12 (stereo not drawn) [Example 32]	> 50000	15.9	3.41
Cc1cc(-c2[nH]nc(-c3nc4c(s3)CN(C3COC3)CC4)c2C(C)C)cn2ncnc12 [Example 253]	23000	3.01	4.7
COc1cc(-c2[nH]nc(-c3nc4c(s3)CNCC4)c2C(C)C)cn2ncnc12 [Example 220]	> 50000	4.38	1.4
Cc1cc(-c2[nH]nc(C3CCC(N4CCN(C)CC4)CC3)c2C(C)C)cn2ncnc12 (single isomer, unassigned) [Example 287]	29200	0.54	13.3
CNC1CCC(c2n[nH]c(-c3cc(C)c4ncnn4c3)c2C(C)C)CC1 (single isomer, unassigned) [Example 295]	9710	0.28	4.94
COCC(C)N[C@H]1CC[C@@H](NC(=O)c2n[nH]c(-c3cc(C)c4ncnn4c3)c2C(C)C)CC1 (stereo partly drawn) [Example 147]	18800	5.67	90.1
COc1cc(-c2[nH]nc(C(=O)N(C)C3CCN(C)CC3)c2C(C)C)cn2ncnc12 [Example 9]	4160	> 3130	> 3130
Cc1cc(-c2[nH]nc(C(=O)N(C)CCCN(C)C)c2C(C)C)cn2ncnc12 [Example 24]	793	12.5	43.4
Cc1cc(-c2[nH]nc(C(=O)N[C@H]3CC[C@H](NCC4CCOCC4)CC3)c2C(C)C)cn2ncnc12 [Example 111]	3930	33.7	2.97
COc1ncc(CN2CCC(NC(=O)c3n[nH]c(-c4cc(C)c5ncnn5c4)c3C(C)C)CC2)cn1 [Example 157]	16400	11.9	37.4
CC(C)c1c(C(=O)NC2CCN(C(C)C)CC2)n[nH]c1-c1cn(C)c2ncccc12 [Example 42]	19000	6.77	2.99
Cc1cc(-c2[nH]nc(C3CCC(N(C)C(=O)CN(C)C)CC3)c2C(C)C)cn2ncnc12 (single isomer, unassigned) [compound 297]	8910	0.27	2.25
Cc1cc(-c2[nH]nc(C3CCC(N(C)CC(=O)N(C)C)CC3)c2C(C)C)cn2ncnc12 (single isomer, unassigned) [compound 299]	12700	0.72	1.42
Cc1c(C(=O)NC2CCN(C(C)C)CC2)n[nH]c1-c1cc(C)c2ncnn2c1 [Example 179, N-(1-isopropylpiperidin-4-yl)-4-methyl-5-(8-methyl-[1,2,4]triazolo[1,5-a]pyridin-6-yl)-1H-pyrazole-3-carboxamide]	7260	13.5	9.72
CCC(CC)CN[C@H]1CC[C@@H](NC(=O)c2n[nH]c(-c3cc(C)c4ncnn4c3)c2C(C)C)CC1 [Example 101]	4790	23	3.68
COc1cc(-c2[nH]nc(-c3nc4c(s3)CN(C(C)C)CC4)c2C(C)C)cn2ncnc12 [Example 259]	> 50000	13.8	23.5
Cc1cc(-c2[nH]nc(-c3ccc4c(c3)CCN(CC(=O)N(C)C)C4)c2C(C)C)cn2ncnc12 [Example 271, 2-(6-(4-isopropyl-5-(8-methyl-[1,2,4]triazolo[1,5-a]pyridin-6-yl)-1H-pyrazol-3-yl)-3,4-dihydroisoquinolin-2(1H)-yl)-N,N-dimethylacetamide]	4560	1.94	0.96
Cc1cc(-c2[nH]nc(C(=O)NC3CCN(CC(F)(F)F)CC3)c2C(C)C)cn2ncnc12 [Example 173]	7790	7.58	8.56
Cc1cc(-c2[nH]nc(C(=O)NC3CNC3)c2C(C)C)cn2ncnc12 [Example 58]	32800	1.43	3.01
Cc1cc(-c2[nH]nc(C(=O)NC3CN(C)C3)c2C(C)C)cn2ncnc12 [Example 156]	10900	0.09	1.72
CCN1CCC(c2cnc(-c3n[nH]c(-c4cc(OC)c5ncnn5c4)c3C(C)C)cn2)CC1 [Example 382]	9860	2.33	2.32
Cc1cc(-c2[nH]nc(-c3ccc4c(c3)CCNC4=O)c2C(C)C)cn2ncnc12 [Example 215]	15000	6	2.3
